Earlier results on three compounds are cited in patent US8091801B2, “Generation of therapeutic microfoam” (BTG International Limited, priority 1999, dated 2012).

For this data set the following is noted: in water at STP.
`[He]` [Helium]: the “Mole Fraction Solubility” value is recorded as 0.7 10^−5.
For the compound `[N-]=[N+]=O` [Nitrous oxide], the “Mole Fraction Solubility” value is on record as 43.7 10^−5.
Turning to `O=O` [Oxygen], the “Mole Fraction Solubility” value is listed as 2.3 10^−5.
